Assays:
Format in all cases: in vivo
[1] = tested on: redroot pigweed (Amaranthus retroflexus, AMARE); test: Pre-emerge test, greenhouse herbicide activity screening; details: pre-emerge, 14 days after application, scale 0-100
Outline: (§1)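 Plants grown in 10 cm pots of sandy loam mix received acetone-dissolved compounds through a moving flat-fan nozzle. Doses ranged from 15 to 1000 g ai/ha. Pre-emerge pots were seeded one day earlier, post-emerge pots 8–21 days earlier. Fourteen days on, each pot was graded 0–100 for damage.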

[2] = tested on: velvetleaf (Abutilon theophrasti, ABUTH); test: Post-emerge test, greenhouse herbicide activity screening; details: post-emerge, 14 days after application, rating scale 0-100
Outline: (§2)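 Rating: 0–100 visual injury, 14 DAA. Application: acetone, 187 l/ha, 15–1000 g ai/ha, flat-fan track sprayer with nozzle 40–45 cm above soil or canopy. Post-emerge runs used 0.25% v/v surfactant on 2–3 leaf plants.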

[3] = tested on: johnsongrass (Sorghum halepense, SORHA); test: as above; details: post-emerge, 14 days after application, rating scale 0-100
Outline: as §2

[4] = tested on: barnyardgrass (Echinochloa crus-galli, ECHCG); test: as above; details: post-emerge, 14 days after application, rating scale 0-100
Outline: as §2

[5] = tested on: lambsquarters (Chenopodium album, CHEAL); test: as above; details: post-emerge, 14 days after application, rating scale 0-100
Outline: as §2

[6] = tested on: sicklepod (Cassia obtusifolia, CASOB); test: as above; details: post-emerge, 14 days after application, rating scale 0-100
Outline: as §2

[7] = tested on: ivyleaf morningglory (Ipomoea hederacea, IPOHE); test: as above; details: post-emerge, 14 days after application, rating scale 0-100
Outline: as §2

[8] = tested on: green foxtail (Setaria viridis, SETVI); test: as above; details: post-emerge, 14 days after application, rating scale 0-100
Outline: as §2

[9] = tested on: redroot pigweed (Amaranthus retroflexus, AMARE); test: as above; details: post-emerge, 14 days after application, rating scale 0-100
Outline: as §2

[10] = tested on: large crabgrass (Digitaria sanguinalis, DIGSA); test: as above; details: post-emerge, 14 days after application, rating scale 0-100
Outline: as §2

[11] = tested on: upland rice (Oryza sp., var. Tebonnet, RICE); test: Post-emerge test, crop safety; details: post-emerge, 14 days after application, rating scale 0-100
Outline: as §1

[12] = tested on: field corn (Zea mays L., var. Dekalb 535, CORN); test: Post-emerge test, crop safety; details: post-emerge, 14 days after application, rating scale 0-100
Outline: as §1

[13] = tested on: upland rice (Oryza sp., var. Tebonnet, RICE); test: Pre-emerge test, crop safety; details: pre-emerge, 14 days after application, scale 0-100
Outline: as §1

[14] = tested on: field corn (Zea mays L., var. Dekalb 535, CORN); test: Pre-emerge test, crop safety; details: pre-emerge, 14 days after application, scale 0-100
Outline: as §1

[15] = tested on: velvetleaf (Abutilon theophrasti, ABUTH); test: Pre-emerge test, greenhouse herbicide activity screening; details: pre-emerge, 14 days after application, scale 0-100
Outline: as §2

[16] = tested on: johnsongrass (Sorghum halepense, SORHA); test: as above; details: pre-emerge, 14 days after application, scale 0-100
Outline: as §2

[17] = tested on: barnyardgrass (Echinochloa crus-galli, ECHCG); test: as above; details: pre-emerge, 14 days after application, scale 0-100
Outline: as §2

[18] = tested on: lambsquarters (Chenopodium album, CHEAL); test: as above; details: pre-emerge, 14 days after application, scale 0-100
Outline: as §2

[19] = tested on: sicklepod (Cassia obtusifolia, CASOB); test: as above; details: pre-emerge, 14 days after application, scale 0-100
Outline: as §2

[20] = tested on: ivyleaf morningglory (Ipomoea hederacea, IPOHE); test: as above; details: pre-emerge, 14 days after application, scale 0-100
Outline: as §2

[21] = tested on: green foxtail (Setaria viridis, SETVI); test: as above; details: pre-emerge, 14 days after application, scale 0-100
Outline: as §2

[22] = tested on: large crabgrass (Digitaria sanguinalis, DIGSA); test: as above; details: pre-emerge, 14 days after application, scale 0-100
Outline: as §2

[23] = tested on: common ragweed (Ambrosia artemisizfolia L., AMBEL); test: as above; details: pre-emerge, 14 days after application, scale 0-100
Outline: as §2

Cc1c(Cl)cc(F)c(-n2c(=O)cc(C(F)(F)F)n(C)c2=O)c1NC(=O)C=Cc1ccccc1 [2-123]
phytotoxicity rating AMARE ([1]; 63 g ai/ha): 100
phytotoxicity rating AMARE ([1]; 250 g ai/ha): 100
phytotoxicity rating ABUTH ([2]; 63 g ai/ha): 100
phytotoxicity rating ABUTH ([2]; 250 g ai/ha): 100
phytotoxicity rating SORHA ([3]; 63 g ai/ha): 10
phytotoxicity rating SORHA ([3]; 250 g ai/ha): 30
phytotoxicity rating ECHCG ([4]; 63 g ai/ha): 10
phytotoxicity rating ECHCG ([4]; 250 g ai/ha): 20
phytotoxicity rating CHEAL ([5]; 63 g ai/ha): 100
phytotoxicity rating CHEAL ([5]; 250 g ai/ha): 100
phytotoxicity rating CASOB ([6]; 63 g ai/ha): 100
phytotoxicity rating CASOB ([6]; 250 g ai/ha): 100
phytotoxicity rating IPOHE ([7]; 63 g ai/ha): 100
phytotoxicity rating IPOHE ([7]; 250 g ai/ha): 100
phytotoxicity rating SETVI ([8]; 63 g ai/ha): 20
phytotoxicity rating SETVI ([8]; 250 g ai/ha): 30
phytotoxicity rating AMARE ([9]; 63 g ai/ha): 100
phytotoxicity rating AMARE ([9]; 250 g ai/ha): 100
phytotoxicity rating DIGSA ([10]; 63 g ai/ha): 10
phytotoxicity rating DIGSA ([10]; 250 g ai/ha): 30
phytotoxicity rating RICE ([11]; 63 g ai/ha): 60
phytotoxicity rating RICE ([11]; 250 g ai/ha): 70
phytotoxicity rating CORN ([12]; 63 g ai/ha): 35
phytotoxicity rating CORN ([12]; 250 g ai/ha): 40
phytotoxicity rating RICE (crop damage) ([13]; 63 g ai/ha): 30
phytotoxicity rating RICE (crop damage) ([13]; 250 g ai/ha): 80
phytotoxicity rating CORN (crop damage) ([14]; 63 g ai/ha): 0
phytotoxicity rating CORN (crop damage) ([14]; 250 g ai/ha): 15
phytotoxicity rating ABUTH ([15]; 63 g ai/ha): 100
phytotoxicity rating ABUTH ([15]; 250 g ai/ha): 100
phytotoxicity rating SORHA ([16]; 63 g ai/ha): 30
phytotoxicity rating SORHA ([16]; 250 g ai/ha): 70
phytotoxicity rating ECHCG ([17]; 63 g ai/ha): 40
phytotoxicity rating ECHCG ([17]; 250 g ai/ha): 80
phytotoxicity rating CHEAL ([18]; 63 g ai/ha): 100
phytotoxicity rating CHEAL ([18]; 250 g ai/ha): 100
phytotoxicity rating CASOB ([19]; 63 g ai/ha): 60
phytotoxicity rating CASOB ([19]; 250 g ai/ha): 90
phytotoxicity rating IPOHE ([20]; 63 g ai/ha): 100
phytotoxicity rating IPOHE ([20]; 250 g ai/ha): 100
phytotoxicity rating SETVI ([21]; 63 g ai/ha): 80
phytotoxicity rating SETVI ([21]; 250 g ai/ha): 100
phytotoxicity rating DIGSA ([22]; 63 g ai/ha): 60
phytotoxicity rating DIGSA ([22]; 250 g ai/ha): 100
phytotoxicity rating AMBEL ([23]; 63 g ai/ha): 95
phytotoxicity rating AMBEL ([23]; 250 g ai/ha): 100

Cn1c(C(F)(F)F)cc(=O)n(-c2c(F)cc(OC(F)F)cc2NC(=O)c2ccc3ccccc3c2)c1=O [2-148]
phytotoxicity rating AMARE ([1]; 63 g ai/ha): 100
phytotoxicity rating AMARE ([1]; 250 g ai/ha): 100
ABUTH phytotoxicity rating ([2]; 63 g ai/ha): 100
ABUTH phytotoxicity rating ([2]; 250 g ai/ha): 100
SORHA phytotoxicity rating ([3]; 63 g ai/ha): 0
SORHA phytotoxicity rating ([3]; 250 g ai/ha): 10
ECHCG phytotoxicity rating ([4]; 63 g ai/ha): 50
ECHCG phytotoxicity rating ([4]; 250 g ai/ha): 20
CHEAL phytotoxicity rating ([5]; 63 g ai/ha): 100
CHEAL phytotoxicity rating ([5]; 250 g ai/ha): 100
CASOB phytotoxicity rating ([6]; 63 g ai/ha): 95
CASOB phytotoxicity rating ([6]; 250 g ai/ha): 100
IPOHE phytotoxicity rating ([7]; 63 g ai/ha): 80
IPOHE phytotoxicity rating ([7]; 250 g ai/ha): 90
SETVI phytotoxicity rating ([8]; 63 g ai/ha): 50
SETVI phytotoxicity rating ([8]; 250 g ai/ha): 40
AMARE phytotoxicity rating ([9]; 63 g ai/ha): 100
AMARE phytotoxicity rating ([9]; 250 g ai/ha): 90
DIGSA phytotoxicity rating ([10]; 63 g ai/ha): 40
DIGSA phytotoxicity rating ([10]; 250 g ai/ha): 40
RICE phytotoxicity rating (crop damage) ([11]; 63 g ai/ha): 0
RICE phytotoxicity rating (crop damage) ([11]; 250 g ai/ha): 10
CORN phytotoxicity rating (crop damage) ([12]; 63 g ai/ha): 25
CORN phytotoxicity rating (crop damage) ([12]; 250 g ai/ha): 30
phytotoxicity rating RICE (crop damage) ([13]; 63 g ai/ha): 0
phytotoxicity rating RICE (crop damage) ([13]; 250 g ai/ha): 60
phytotoxicity rating CORN (crop damage) ([14]; 63 g ai/ha): 0
phytotoxicity rating CORN (crop damage) ([14]; 250 g ai/ha): 0
phytotoxicity rating ABUTH ([15]; 63 g ai/ha): 100
phytotoxicity rating ABUTH ([15]; 250 g ai/ha): 100
phytotoxicity rating SORHA ([16]; 63 g ai/ha): 0
phytotoxicity rating SORHA ([16]; 250 g ai/ha): 30
phytotoxicity rating ECHCG ([17]; 63 g ai/ha): 90
phytotoxicity rating ECHCG ([17]; 250 g ai/ha): 100
phytotoxicity rating CHEAL ([18]; 63 g ai/ha): 100
phytotoxicity rating CHEAL ([18]; 250 g ai/ha): 100
phytotoxicity rating CASOB ([19]; 63 g ai/ha): 50
phytotoxicity rating CASOB ([19]; 250 g ai/ha): 95
phytotoxicity rating IPOHE ([20]; 63 g ai/ha): 50
phytotoxicity rating IPOHE ([20]; 250 g ai/ha): 99
phytotoxicity rating SETVI ([21]; 63 g ai/ha): 80
phytotoxicity rating SETVI ([21]; 250 g ai/ha): 95
phytotoxicity rating DIGSA ([22]; 63 g ai/ha): 95
phytotoxicity rating DIGSA ([22]; 250 g ai/ha): 100
phytotoxicity rating AMBEL ([23]; 63 g ai/ha): 0
phytotoxicity rating AMBEL ([23]; 250 g ai/ha): 100

Reference: patent US6355799B1, “Substituted benzene compounds, process for their preparation, and herbicidal and defoliant compositions containing them” (ISK Americas Incorporated, priority 1997, dated 2002)
